Laboratory results as given in US9522914B2, “Azole derivative” (TAISHO PHARMACEUTICAL CO., LTD, priority 2011, dated 2016).

Biological target: Human V1b receptor (Homo sapiens (Human), UniProt P47901)
Assay: Binding Test for V1b Receptor ([3H]AVP, crude membrane preparation of 293FT cells)
Conditions: inhibition of [3H]AVP binding (0.4 to 1 nmol/L), room temperature, 60 minutes
Procedure, shortened: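 Crude membranes from 293FT cells transiently expressing human V1b, incubated with [3H]AVP (0.4 to 1 nmol/L) and compound (0.01 nmol/L–1 μmol/L final) in Tris pH 7.4 with MgCl2 and 0.1% BSA, 60 min at room temperature. Bound label collected by filtration. Nonspecific binding defined with unlabeled AVP; IC50 from dose-response curve.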

Sequence of Human V1b receptor (P47901 whole entry): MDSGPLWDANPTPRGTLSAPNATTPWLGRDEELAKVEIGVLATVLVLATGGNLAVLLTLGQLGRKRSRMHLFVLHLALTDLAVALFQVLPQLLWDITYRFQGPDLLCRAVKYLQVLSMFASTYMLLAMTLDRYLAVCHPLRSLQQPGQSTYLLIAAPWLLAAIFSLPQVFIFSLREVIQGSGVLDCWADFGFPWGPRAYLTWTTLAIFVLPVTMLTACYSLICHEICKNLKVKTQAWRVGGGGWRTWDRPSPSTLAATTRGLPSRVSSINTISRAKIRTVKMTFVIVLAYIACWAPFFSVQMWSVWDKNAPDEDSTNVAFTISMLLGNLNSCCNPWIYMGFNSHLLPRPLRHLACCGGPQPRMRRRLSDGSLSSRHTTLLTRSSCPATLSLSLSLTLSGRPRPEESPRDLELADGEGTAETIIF

| SMILES | IC50 |
| --- | --- |
| CC(C)(C)NC(=O)Cc1nn(-c2ccc(CCN3CCOCC3)cc2)c(=O)n1-c1ccc(F)c(Cl)c1 [Example D-30, N-tert-butyl-2-[4-(3-chloro-4-fluorophenyl)-1-{4-[2-(morpholin-4-yl)ethyl]phenyl}-5-oxo-4,5-dihydro-1H-1,2,4-triazol-3-yl]acetamide] | 2.8 nM |
| CC(C)(C)NC(=O)Cc1nn(-c2ccc(CCN3C4CCC3COC4)cc2)c(=O)n1-c1ccc(F)c(Cl)c1 [Example D-31, N-tert-butyl-2-[4-(3-chloro-4-fluorophenyl)-1-{4-[2-(3-oxa-8-azabicyclo[3.2.1]oct-8-yl)ethyl]phenyl}-5-oxo-4,5-dihydro-1H-1,2,4-triazol-3-yl]acetamide] | 2.9 nM |
| CC(C)(C)NC(=O)Cc1nn(-c2ccc(CCN3CCOCC3)cn2)c(=O)n1-c1ccc(F)c(Cl)c1 [Example D-32, N-tert-butyl-2-[4-(3-chloro-4-fluorophenyl)-1-{5-[2-(morpholin-4-yl)ethyl]pyridin-2-yl}-5-oxo-4,5-dihydro-1H-1,2,4-triazol-3-yl]acetamide] | 17 nM |
| CC(C)(C)NC(=O)Cc1nn(-c2ccc(CCN3C4CCC3COC4)cn2)c(=O)n1-c1ccc(F)c(Cl)c1 [Example D-33, N-tert-butyl-2-[4-(3-chloro-4-fluorophenyl)-1-{5-[2-(3-oxa-8-azabicyclo[3.2.1]oct-8-yl)ethyl]pyridin-2-yl}-5-oxo-4,5-dihydro-1H-1,2,4-triazol-3-yl]acetamide] | 9.1 nM |
| CC(C)NC(=O)Cc1nn(-c2ccc(CC(C)N3C4CCC3COC4)cn2)c(=O)n1-c1cccc(Cl)c1 [Example D-34, 2-[4-(3-chlorophenyl)-1-{5-[2-(3-oxa-8-azabicyclo[3.2.1]oct-8-yl)propyl]pyridin-2-yl}-5-oxo-4,5-dihydro-1H-1,2,4-triazol-3-yl]-N-(propan-2-yl)acetamide] | 3.3 nM |
| CC(C)NC(=O)Cc1nn(-c2ccc(CC(C)N3C4CCC3COC4)cc2)c(=O)n1-c1ccc(F)c(Cl)c1 [Example D-36, 2-[4-(3-chloro-4-fluorophenyl)-1-{4-[2-(3-oxa-8-azabicyclo[3.2.1]oct-8-yl)propyl]phenyl}-5-oxo-4,5-dihydro-1H-1,2,4-triazol-3-yl]-N-(propan-2-yl)acetamide] | 0.61 nM |
| COc1cc(-n2c(CC(=O)NC(C)C)nn(-c3ccc(CCN4C5CCC4COC5)cc3)c2=O)ccc1F [Example D-37, 2-[4-(4-fluoro-3-methoxyphenyl)-1-{4-[2-(3-oxa-8-azabicyclo[3.2.1]oct-8-yl)ethyl]phenyl}-5-oxo-4,5-dihydro-1H-1,2,4-triazol-3-yl]-N-(propan-2-yl)acetamide] | 12 nM |
| COc1cc(-n2c(CC(=O)NC(C)C)nn(-c3ccc(CCN4C5CCC4COC5)cn3)c2=O)ccc1F [Example D-38, 2-[4-(4-fluoro-3-methoxyphenyl)-1-{5-[2-(3-oxa-8-azabicyclo[3.2.1]oct-8-yl)ethyl]pyridin-2-yl}-5-oxo-4,5-dihydro-1H-1,2,4-triazol-3-yl]-N-(propan-2-yl)acetamide] | 10 to 100 nM |
| COc1cccc(-n2c(CC(=O)NC(C)C)nn(-c3ccc(CCN4C5CCC4COC5)cc3)c2=O)c1 [Example D-39, 2-[4-(3-methoxyphenyl)-1-{4-[2-(3-oxa-8-azabicyclo[3.2.1]oct-8-yl)ethyl]phenyl}-5-oxo-4,5-dihydro-1H-1,2,4-triazol-3-yl]-N-(propan-2-yl)acetamide] | 10 to 100 nM |
| COc1cccc(-n2c(CC(=O)NC(C)C)nn(-c3ccc(CCN4C5CCC4COC5)cn3)c2=O)c1 [Example D-40, 2-[4-(3-methoxyphenyl)-1-{5-[2-(3-oxa-8-azabicyclo[3.2.1]oct-8-yl)ethyl]pyridin-2-yl}-5-oxo-4,5-dihydro-1H-1,2,4-triazol-3-yl]-N-(propan-2-yl)acetamide] | 100 to 1000 nM |
| COc1cc(-n2c(CC(=O)NC(C)C)nn(-c3ccc(CCN4C5CCC4COC5)c(OC)c3)c2=O)ccc1F [Example D-41, 2-[4-(4-fluoro-3-methoxyphenyl)-1-{3-methoxy-4-[2-(3-oxa-8-azabicyclo[3.2.1]oct-8-yl)ethyl]phenyl}-5-oxo-4,5-dihydro-1H-1,2,4-triazol-3-yl]-N-(propan-2-yl)acetamide] | 2.7 nM |
| COc1cccc(-n2c(CC(=O)NC(C)C)nn(-c3ccc(CCN4C5CCC4COC5)c(OC)c3)c2=O)c1 [Example D-42, 2-[1-{3-methoxy-4-[2-(3-oxa-8-azabicyclo[3.2.1]oct-8-yl)ethyl]phenyl}-4-(3-methoxyphenyl)-5-oxo-4,5-dihydro-1H-1,2,4-triazol-3-yl]-N-(propan-2-yl)acetamide] | 7.9 nM |

The next lines start with the values.

| IC50 | SMILES |
| --- | --- |
| 18 nM | CC(C)NC(=O)Cc1nn(-c2ccc(CCN3CCOCC3)cc2)c(=O)n1-c1cccc(C(F)(F)F)c1 [Example D-35, 2-(1-{4-[2-(morpholin-4-yl)ethyl]phenyl}-5-oxo-4-[3-(trifluoromethyl)phenyl]-4,5-dihydro-1H-1,2,4-triazol-3-yl)-N-(propan-2-yl)acetamide] |
| 15 nM | CC(C)NC(=O)Cc1nn(-c2ccc(CCN3CCCC3)cc2)c(=O)n1-c1ccc(F)c(Cl)c1 [Example D-43, 2-[4-(3-chloro-4-fluorophenyl)-5-oxo-1-{4-[2-(pyrrolidin-1-yl)ethyl]phenyl}-4,5-dihydro-H-1,2,4-triazol-3-yl]-N-(propan-2-yl)acetamide] |
| 16 nM | CC(C)NC(=O)Cc1nn(-c2ccc(CCN3CCCCC3)cc2)c(=O)n1-c1ccc(F)c(Cl)c1 [Example D-44, 2-[4-(3-chloro-4-fluorophenyl)-5-oxo-1-{4-[2-(piperidin-1-yl)ethyl]phenyl}-4,5-dihydro-1H-1,2,4-triazol-3-yl]-N-(propan-2-yl)acetamide] |
| 10 to 100 nM | CC(C)NC(=O)Cc1nn(-c2ccc(CCN3CCCC3)cc2)c(=O)n1-c1cccc(Cl)c1 [Example D-45, 2-[4-(3-chlorophenyl)-5-oxo-1-{4-[2-(pyrrolidin-1-yl)ethyl]phenyl}-4,5-dihydro-1H-1,2,4-triazol-3-yl]-N-(propan-2-yl)acetamide] |
| 10 to 100 nM | CC(C)NC(=O)Cc1nn(-c2ccc(CCN3CCCCC3)cc2)c(=O)n1-c1cccc(Cl)c1 [Example D-46, 2-[4-(3-chlorophenyl)-5-oxo-1-{4-[2-(piperidin-1-yl)ethyl]phenyl}-4,5-dihydro-1H-1,2,4-triazol-3-yl]-N-(propan-2-yl)acetamide] |
| 100 to 1000 nM | CC(C)NC(=O)Cc1nn(-c2ccc(CCN3CC=CCC3)cc2)c(=O)n1-c1cccc(Cl)c1 [Example D-47, 2-[4-(3-chlorophenyl)-1-{4-[2-(3,6-dihydropyridin-1(2H)-yl)ethyl]phenyl}-5-oxo-4,5-dihydro-1H-1,2,4-triazol-3-yl]-N-(propan-2-yl)acetamide] |
| 10 to 100 nM | CC(C)NC(=O)Cc1nn(-c2ccc(CCN3CCSCC3)cc2)c(=O)n1-c1cccc(Cl)c1 [Example D-48, 2-[4-(3-chlorophenyl)-5-oxo-1-{4-[2-(thiomorpholin-4-yl)ethyl]phenyl}-4,5-dihydro-1H-1,2,4-triazol-3-yl]-N-(propan-2-yl)acetamide] |
| 100 to 1000 nM | CC1CCN(CCc2ccc(-n3nc(CC(=O)NC(C)C)n(-c4cccc(Cl)c4)c3=O)cc2)CC1 [Example D-49, 2-[4-(3-chlorophenyl)-1-{4-[2-(4-methylpiperidin-1-yl)ethyl]phenyl}-5-oxo-4-,5-dihydro-1H-1,2,4-triazol-3-yl]-N-(propan-2-yl)acetamide] |
| 100 to 1000 nM | COC1CCCN(CCc2ccc(-n3nc(CC(=O)NC(C)C)n(-c4cccc(Cl)c4)c3=O)cc2)C1 [Example D-50, 2-[4-(3-chlorophenyl)-1-{4-[2-(3-methoxypiperidin-1-yl)ethyl]phenyl}-5-oxo-4,5-dihydro-1H-1,2,4-triazol-3-yl]-N-(propan-2-yl)acetamide] |
| 100 to 1000 nM | CC(C)NC(=O)Cc1nn(-c2ccc(CCN3CCC4CCCCC4C3)cc2)c(=O)n1-c1cccc(Cl)c1 [Example D-51, 2-[4-(3-chlorophenyl)-1-{4-[2-(octahydroisoquinolin-2(1H)-yl)ethyl]phenyl}-5-oxo-4,5-dihydro-1H-1,2,4-triazol-3-yl]-N-(propan-2-yl)acetamide] |
| 100 to 1000 nM | CC(C)NC(=O)Cc1nn(-c2ccc(CCN3C[C@@H](C)O[C@@H](C)C3)cc2)c(=O)n1-c1cccc(Cl)c1 [Example D-52, 2-[4-(3-chlorophenyl)-1-(4-{2-[(2R,6S)-2,6-dimethylmorpholin-4-yl]ethyl}phenyl)-5-oxo-4,5-dihydro-1H-1,2,4-triazol-3-yl]-N-(propan-2-yl)acetamide] |
| 10 to 100 nM | CC(C)NC(=O)Cc1nn(-c2ccc(CCN3CCOCC3C)cc2)c(=O)n1-c1cccc(Cl)c1 [Example D-53, 2-[4-(3-chlorophenyl)-1-{4-[2-(3-methylmorpholin-4-yl)ethyl]phenyl}-5-oxo-4,5-dihydro-1H-1,2,4-triazol-3-yl]-N-(propan-2-yl)acetamide] |
| 10 to 100 nM | CCC1COCCN1CCc1ccc(-n2nc(CC(=O)NC(C)C)n(-c3cccc(Cl)c3)c2=O)cc1 [Example D-54, 2-[4-(3-chlorophenyl)-1-{4-[2-(3-ethylmorpholin-4-yl)ethyl]phenyl}-5-oxo-4,5-dihydro-1H-1,2,4-triazol-3-yl]-N-(propan-2-yl)acetamide] |
| 100 to 1000 nM | CC(C)NC(=O)Cc1nn(-c2ccc(CCN3CCC(C)(O)CC3)cc2)c(=O)n1-c1cccc(Cl)c1 [Example D-55, 2-[4-(3-chlorophenyl)-1-{4-[2-(4-hydroxy-4-methylpiperidin-1-yl)ethyl]phenyl}-5-oxo-4,5-dihydro-1H-1,2,4-triazol-3-yl]-N-(propan-2-yl)acetamide] |
| 10 to 100 nM | CC(C)NC(=O)Cc1nn(-c2ccc(CCN3CC4(CCOCC4)C3)cc2)c(=O)n1-c1cccc(Cl)c1 [Example D-56, 2-[4-(3-chlorophenyl)-1-{4-[2-(7-oxa-2-azaspiro[3.5]non-2-yl)ethyl]phenyl}-5-oxo-4,5-dihydro-1H-1,2,4-triazol-3-yl]-N-(propan-2-yl)acetamide] |
